Measurements taken from publication PMC8745342, “In Vitro and In Silico Kinetic Studies of Patented 1,7-diEthyl and 1,7-diMethyl Aminoalkanol Derivatives as New Inhibitors of Acetylcholinesterase” (International Journal of Molecular Sciences, 2021).

Target: T1, Acetylcholinesterase human (AChE) (Homo sapiens, UniProt P22303)
T1 construct: purchased Sigma-Aldrich (Poznań, Poland)
Assay: AChE inhibition kinetics, Ellman's method combined with capillary electrophoresis
Type: biochemical
Conditions: for type of AChE inhibition: from Lineweaver-Burk plots, Km and Vmax; for IC50: from activity (%) versus inhibitor concentration plots; for Tilt Angle of Lineweaver-Burk line: acetylthiocholine 0.36–46.00 mM, n = 6; for amount of 4,4-dithio-bis-acid nitrobenzoic (DBAN) product in the presence of inhibitor: 0.66 mM without inhibitors
Description: In this work, we used the combined Ellman’s method with the capillary electrophoresis method developed by us for the determination of 4,4-dithio-bis-acid nitrobenzoic (DBAN) (main enzyme reaction product) in the presence of acetylthiocholine (ACth), 5-thio-2-nitrobenzoic acid (NTB), 5,5′-dithio-bis-2-nitrobenzoic acid (DTNB), acetylcholinesterase (AChE) and inhibitors (I), (II), (III) and (IV) of acetylcholinesterase. For the development of this method, we optimized the buffer pH, separating background electrolyte (BGE) concentration, wavelength, temperature, and voltage. […] All these separation systems were tested to achieve the best separation parameters, resolution, and analysis time for all components in the reaction mixture. […] Separation was carried out at 15 kV. Each sample was added to the capillary under hydrodynamic injection.
The samples were injected under 5 psi pressure for 3 s. The experiments were performed under constant current conditions (85 μA). […] Before the assay, the capillary was conditioned with 0.1 M NaOH for 10 min at 10 psi and with H2O for 10 min at 10 psi. Then, it was electro conditioned with the running buffer for 20 min at +10 kV and pressure-conditioned with the running buffer for 10 min at 10 psi. Before each injection, the capillary was washed with 1 M NaOH for 2 min, then with H2O for 2 min, and finally with BGE for 2 min. At the end of each working day, the capillary was rinsed for 10 min with 0.1 M NaOH, 10 min with BGE, and 10 min with deionized water at 15 psi. Then, the capillary was exposed to air for 10 min at 20 psi and left empty.
Sample mixtures containing 4,4-dithio-bis-acid nitrobenzoic (DBAN) (main enzyme reaction product) in the presence of acetylthiocholine (ACth), 5-thio-2-nitrobenzoic acid (NTB), 5,5′-dithio-bis-2-nitrobenzoic acid (DTNB), acetylcholinesterase (AChE) and inhibitors (I), (II), (III) and (IV) were introduced automatically by pressure injection (with 2 psi pressure for 5 s on the sample solution). At the day’s end, vials with anode and cathode buffer were emptied and running buffer was filled again at the start of the next day before the analysis.
Acetylcholinesterase activity was determined according to the method by Ellman et al. and according to the procedure described by Rosilene R et al. but slightly modified. […] The tubes containing solutions were preincubated for 2 min at 25 °C. Then, 0.1 mL […] AChE was introduced into tubes 1–9, at an interval of 1 min. All 10 samples were incubated for 3 min at 25 °C. After incubation, the analytical samples were introduced into the capillary.
The inhibition constants (Ki) were calculated from the plotted Lineweaver–Burk curves for the four concentrations of the inhibitors (I), (II), (III) and (IV). The method was based on two steps (Figure 8).

[1] = inhibitor 0.08 mM, acetylthiocholine 0.36 mM
[2] = inhibitor 0.08 mM, acetylthiocholine 0.72 mM
[3] = inhibitor 0.08 mM, acetylthiocholine 1.44 mM
[4] = inhibitor 0.08 mM, acetylthiocholine 2.88 mM
[5] = inhibitor 0.08 mM, acetylthiocholine 5.75 mM
[6] = inhibitor 0.08 mM, acetylthiocholine 11.50 mM
[7] = inhibitor 0.08 mM, acetylthiocholine 23.00 mM
[8] = inhibitor 0.08 mM, acetylthiocholine 34.50 mM
[9] = inhibitor 0.08 mM, acetylthiocholine 46.00 mM

T1 sequence (P22303 32-614): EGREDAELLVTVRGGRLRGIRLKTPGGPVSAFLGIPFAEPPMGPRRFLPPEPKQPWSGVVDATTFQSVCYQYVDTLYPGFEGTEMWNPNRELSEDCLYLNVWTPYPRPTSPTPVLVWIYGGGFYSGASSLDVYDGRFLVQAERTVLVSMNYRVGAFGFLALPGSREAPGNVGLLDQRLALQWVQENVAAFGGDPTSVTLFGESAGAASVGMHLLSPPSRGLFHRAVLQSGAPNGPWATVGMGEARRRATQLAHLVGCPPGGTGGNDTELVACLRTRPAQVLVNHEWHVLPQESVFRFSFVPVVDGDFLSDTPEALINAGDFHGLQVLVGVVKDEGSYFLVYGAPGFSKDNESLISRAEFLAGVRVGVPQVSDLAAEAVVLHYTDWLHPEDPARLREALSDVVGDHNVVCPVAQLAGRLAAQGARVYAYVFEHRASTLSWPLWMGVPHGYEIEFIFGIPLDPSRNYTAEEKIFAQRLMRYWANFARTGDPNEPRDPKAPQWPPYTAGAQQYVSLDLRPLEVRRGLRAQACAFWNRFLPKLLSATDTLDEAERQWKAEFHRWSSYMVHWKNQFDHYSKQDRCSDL

Compound | type of AChE inhibition | IC50 [µM] | Vmax (inhibitor 0.01 mM) [mM/min] | Tilt Angle of Lineweaver-Burk line (inhibitor 0.01 mM) [°] | Vmax (inhibitor 0.02 mM) [mM/min] | Vmax (inhibitor 0.04 mM) [mM/min] | Tilt Angle of Lineweaver-Burk line (inhibitor 0.04 mM) [°] | Vmax (inhibitor 0.06 mM) [mM/min] | Tilt Angle of Lineweaver-Burk line (inhibitor 0.06 mM) [°] | Vmax (inhibitor 0.08 mM) [mM/min] | 1/Vo, mean [1] [min/mM] | Peak area of product (4,4-dithio-bis-acid nitrobenzoic), mean [1] | V0 (reaction speed), mean [1] [mM/min] | 1/Vo, mean [2] [min/mM] | Peak area of product (4,4-dithio-bis-acid nitrobenzoic), mean [2] | V0 (reaction speed), mean [2] [mM/min] | 1/Vo, mean [3] [min/mM] | Peak area of product (4,4-dithio-bis-acid nitrobenzoic), mean [3] | V0 (reaction speed), mean [3] [mM/min] | amount of 4,4-dithio-bis-acid nitrobenzoic (DBAN) product in the presence of inhibitor [3] [mM] | further results
CCC12C(=O)C(CC)(C(c3ccccc3)=C1c1ccccc1)C1C(=O)N(CC(O)CNC(C)C)C(=O)C12 (centres unmarked) [Compound (I)] | competitive | 37 ± 1 | 0.63 ± 0.02 | 59.52 ± 0.04 | 0.62 ± 0.03 | 0.64 ± 0.01 | 65.42 ± 0.05 | 0.65 ± 0.01 | 69.66 ± 0.05 | 0.65 ± 0.01 | 9.30 | 49766 | 0.11 | 5.46 | 91263 | 0.18 | 3.55 | 128810 | 0.28 | 0.52 | 1/Vo, mean [4]: 2.30 min/mM; Peak area of product (4,4-dithio-bis-acid nitrobenzoic), mean [4]: 171159; V0 (reaction speed), mean [4]: 0.43 mM/min; 1/Vo, mean [5]: 2.05 min/mM; Peak area of product (4,4-dithio-bis-acid nitrobenzoic), mean [5]: 207149; V0 (reaction speed), mean [5]: 0.49 mM/min; 1/Vo, mean [6]: 1.80 min/mM; Peak area of product (4,4-dithio-bis-acid nitrobenzoic), mean [6]: 231267; V0 (reaction speed), mean [6]: 0.56 mM/min; 1/Vo, mean [7]: 1.70 min/mM; Peak area of product (4,4-dithio-bis-acid nitrobenzoic), mean [7]: 247792; V0 (reaction speed), mean [7]: 0.59 mM/min; 1/Vo, mean [8]: 1.55 min/mM; Peak area of product (4,4-dithio-bis-acid nitrobenzoic), mean [8]: 250475; V0 (reaction speed), mean [8]: 0.65 mM/min; 1/Vo, mean [9]: 1.50 min/mM; Peak area of product (4,4-dithio-bis-acid nitrobenzoic), mean [9]: 251643; V0 (reaction speed), mean [9]: 0.67 mM/min; Tilt Angle of Lineweaver-Burk line (inhibitor 0.08 mM): 70.32 ± 0.03 °
CN(C)CC(O)CN1C(=O)C2C(C1=O)C1(C)C(=O)C2(C)C(c2ccccc2)=C1c1ccccc1 (centres unmarked) [Compound (IV)] | competitive | 35 ± 1 | 0.63 ± 0.02 | 59.58 ± 0.04 | 0.63 ± 0.02 | 0.64 ± 0.03 | 65.58 ± 0.03 | 0.63 ± 0.01 | 69.76 ± 0.03 | 0.64 ± 0.03 | 9.85 | 45817 | 0.10 | 5.40 | 84020 | 0.19 | 3.50 | 118587 | 0.29 | 0.48 | Tilt Angle of Lineweaver-Burk line (inhibitor 0.02 mM): 60.09 ± 0.04 °; 1/Vo, mean [4]: 2.30 min/mM; Peak area of product (4,4-dithio-bis-acid nitrobenzoic), mean [4]: 157575; V0 (reaction speed), mean [4]: 0.43 mM/min; 1/Vo, mean [5]: 2.05 min/mM; Peak area of product (4,4-dithio-bis-acid nitrobenzoic), mean [5]: 190708; V0 (reaction speed), mean [5]: 0.49 mM/min; 1/Vo, mean [6]: 1.80 min/mM; Peak area of product (4,4-dithio-bis-acid nitrobenzoic), mean [6]: 212913; V0 (reaction speed), mean [6]: 0.56 mM/min; 1/Vo, mean [7]: 1.70 min/mM; Peak area of product (4,4-dithio-bis-acid nitrobenzoic), mean [7]: 228126; V0 (reaction speed), mean [7]: 0.59 mM/min; 1/Vo, mean [8]: 1.55 min/mM; Peak area of product (4,4-dithio-bis-acid nitrobenzoic), mean [8]: 230596; V0 (reaction speed), mean [8]: 0.65 mM/min; 1/Vo, mean [9]: 1.50 min/mM; Peak area of product (4,4-dithio-bis-acid nitrobenzoic), mean [9]: 231671; V0 (reaction speed), mean [9]: 0.65 mM/min; Tilt Angle of Lineweaver-Burk line (inhibitor 0.08 mM): 70.40 ± 0.03 °
CCC12C(=O)C(CC)(C(c3ccccc3)=C1c1ccccc1)C1C(=O)N(CC(O)CN(C)C)C(=O)C12 (centres unmarked) [Compound (II)] | competitive | 39 ± 1 | 0.62 ± 0.03 | 59.46 ± 0.03 | 0.63 ± 0.02 | 0.65 ± 0.01 | 65.19 ± 0.06 | 0.65 ± 0.01 | 69.02 ± 0.05 | 0.65 ± 0.01 | 9.19 | 56086 | 0.11 | 5.40 | 102853 | 0.19 | 3.50 | 145167 | 0.29 | 0.58 | Tilt Angle of Lineweaver-Burk line (inhibitor 0.02 mM): 59.60 ± 0.08 °; 1/Vo, mean [4]: 2.30 min/mM; Peak area of product (4,4-dithio-bis-acid nitrobenzoic), mean [4]: 192894; V0 (reaction speed), mean [4]: 0.43 mM/min; 1/Vo, mean [5]: 2.05 min/mM; Peak area of product (4,4-dithio-bis-acid nitrobenzoic), mean [5]: 233453; V0 (reaction speed), mean [5]: 0.49 mM/min; 1/Vo, mean [6]: 1.80 min/mM; Peak area of product (4,4-dithio-bis-acid nitrobenzoic), mean [6]: 260635; V0 (reaction speed), mean [6]: 0.56 mM/min; 1/Vo, mean [7]: 1.70 min/mM; Peak area of product (4,4-dithio-bis-acid nitrobenzoic), mean [7]: 279258; V0 (reaction speed), mean [7]: 0.59 mM/min; 1/Vo, mean [8]: 1.55 min/mM; Peak area of product (4,4-dithio-bis-acid nitrobenzoic), mean [8]: 282281; V0 (reaction speed), mean [8]: 0.65 mM/min; 1/Vo, mean [9]: 1.50 min/mM; Peak area of product (4,4-dithio-bis-acid nitrobenzoic), mean [9]: 283597; V0 (reaction speed), mean [9]: 0.67 mM/min; Tilt Angle of Lineweaver-Burk line (inhibitor 0.08 mM): 70.02 ± 0.04 °
